Test results published in patent US20050282818A1, “Ubiquitin ligase inhibitors” (Rigel Pharmaceuticals, Inc., priority 2004, published 2005).

What was measured:
APC11/APC2 = APC11/APC2 (Homo sapiens, UniProt Q9NYG5+Q9UJX6); assay: APC-11/APC-2 ligase assay (APC auto ubiquitination); assay type: biochemical; settings: APC assay
Procedure, shortened: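 His-tagged APC was captured on nickel plates with human E1 (5 ng/well), UbcH5c (20 ng/well), APC (100 ng/well) and Flag-ubiquitin (100 ng/well) in a Tris pH 7.6 reaction buffer containing 2.5 mM ATP, for 1 hour at room temperature. Read-out was anti-Flag/HRP chemiluminescence. IC50 was set against a DMSO control, typically from 6 or 8 concentrations.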

[1] = tested on: ICAM-1 expression in A549 cells; assay: ICAM assay (IL-1 induced ICAM-1/CD54 expression in A549 cells); assay type: cell-based, human
Procedure, shortened: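 A549 cells, 10,000/well, preincubated with compound 1 h at 37° C, then stimulated with IL-1 (4 μl of 25 ng/ml added) for 4 h. Surface ICAM-1 detected by anti-CD54 plus anti-mouse IgG staining for 1 h, luminescent read-out after PBS washes.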

APC11/APC2, sequence (Q9NYG5 whole entry): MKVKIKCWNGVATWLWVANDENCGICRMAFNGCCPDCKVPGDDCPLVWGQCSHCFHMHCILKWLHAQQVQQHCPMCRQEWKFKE
APC11/APC2, sequence (Q9UJX6 whole entry): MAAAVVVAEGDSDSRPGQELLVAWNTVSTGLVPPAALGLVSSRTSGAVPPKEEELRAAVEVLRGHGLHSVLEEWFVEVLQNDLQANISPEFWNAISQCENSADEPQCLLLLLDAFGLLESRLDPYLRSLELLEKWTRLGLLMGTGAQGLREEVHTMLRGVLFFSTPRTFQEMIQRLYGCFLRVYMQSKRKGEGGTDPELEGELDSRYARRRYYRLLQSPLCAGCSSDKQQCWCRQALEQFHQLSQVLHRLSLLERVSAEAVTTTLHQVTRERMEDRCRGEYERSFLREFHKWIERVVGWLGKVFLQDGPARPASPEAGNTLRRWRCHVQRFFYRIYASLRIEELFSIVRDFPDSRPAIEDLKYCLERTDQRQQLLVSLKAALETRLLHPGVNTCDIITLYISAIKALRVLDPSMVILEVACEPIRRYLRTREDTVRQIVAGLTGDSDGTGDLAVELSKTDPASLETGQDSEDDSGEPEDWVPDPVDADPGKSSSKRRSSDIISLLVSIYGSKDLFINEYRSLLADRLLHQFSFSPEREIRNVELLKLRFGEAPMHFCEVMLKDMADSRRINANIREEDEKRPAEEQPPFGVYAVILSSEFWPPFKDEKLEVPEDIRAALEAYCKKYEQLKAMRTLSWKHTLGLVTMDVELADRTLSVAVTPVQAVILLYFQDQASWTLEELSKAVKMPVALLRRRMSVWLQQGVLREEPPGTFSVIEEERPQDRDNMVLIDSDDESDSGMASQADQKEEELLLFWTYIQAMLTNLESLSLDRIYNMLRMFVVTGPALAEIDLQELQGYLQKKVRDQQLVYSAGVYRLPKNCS

IC50 (APC11/APC2) | IC50 ([1]; Homo sapiens, A549, ICAM assay) | IC50 ([1]; ICAM assay) | Compound
1 to 20 µM | 1 to 20 µM | – | CC(C)(C)c1ccc(-c2ccc([N+](=O)[O-])c3nonc23)cc1 [compound 313, 4-(4-Tert-butylphenyl)-7-nitro-2,1,3-benzoxadiazole]
≥ 20 µM | ≥ 20 µM | – | COc1cc(Nc2ccc3nonc3c2S(=O)(=O)Nc2cc(OC)c(Cl)cc2OC)c(OC)cc1Cl [compound 344, N-(4-chloro-2,5-dimethoxyphenyl)-5-([4-chloro-2,5-dimethoxyphenyl]amino)-2,1,3-benzoxadiazole-4-sulfonamide]
1 to 20 µM | ≥ 20 µM | – | O=[N+]([O-])c1ccc(Sc2nc3ccccc3s2)c2nonc12 [compound 158, 4-(1,3-benzothiazol-2-ylthio)-7-nitro-2,1,3-benzoxadiazole]
≥ 20 µM | 1 to 20 µM | – | COc1cc(NS(=O)(=O)c2c(Cl)ccc3nonc23)c(OC)cc1Cl [compound 343, 5-chloro-N-(4-chloro-2,5-dimethoxyphenyl)-2,1,3-benzoxadiazole-4-sulfonamide]
1 to 20 µM | ≥ 20 µM | – | O=S(=O)(c1c(Cl)ccc2nonc12)N1CCN(c2ncc(C(F)(F)F)cc2Cl)CC1 [compound 179, 5-chloro-4-({4-[3-chloro-5-(trifluoromethyl)pyridin-2-yl]piperazin-1-yl}sulfonyl)-2,1,3-benzoxadiazole]
1 to 20 µM | 1 to 20 µM | – | Cc1cccc(-c2ccc([N+](=O)[O-])c3nonc23)c1 [compound 310, 4-(3-Methylphenyl)-7-nitro-2,1,3-benzoxadiazole]
1 to 20 µM | – | 1 to 20 µM | COc1cc(Nc2ccc(S(=O)(=O)Nc3cc(OC)c(Cl)cc3OC)c3nonc23)c(OC)cc1Cl [compound 342, N-(4-chloro-2,5-dimethoxyphenyl)-7-([4-chloro-2,5-dimethoxyphenyl]amino)-2,1,3-benzoxadiazole-4-sulfonamide]
≥ 20 µM | ≥ 20 µM | – | O=S(=O)(Nc1ccc2cn[nH]c2c1)c1c(O)ccc2nonc12 [compound 339, 5-hydroxy-N-(1H-indazol-6-yl)2,1,3-benzoxadiazole-4-sulfonamide]
≥ 20 µM | ≥ 20 µM | – | O=S(=O)(c1c(N2CCC(Oc3ccccc3C(F)(F)F)CC2)ccc2nonc12)N1CCC(Oc2ccccc2C(F)(F)F)CC1 [compound 340, 5-[4-(2-{trifluoromethyl}phenoxy)piperidin-1-yl]-4-{[4-(2-{trifluoromethyl}phenoxy)piperidin-1-yl]sulfonyl}-2,1,3-benzoxadiazole]
1 to 20 µM | 1 to 20 µM | – | O=[N+]([O-])c1ccc(-c2cccc(C(F)(F)F)c2)c2nonc12 [compound 309, 4-Nitro-7-[3-(trifluoromethyl)phenyl]-2,1,3-benzoxadiazole]
≥ 20 µM | 1 to 20 µM | – | COc1cc(NS(=O)(=O)c2ccc(Cl)c3nonc23)c(OC)cc1Cl [compound 341, 7-chloro-N-(4-chloro-2,5-dimethoxyphenyl)-2,1,3-benzoxadiazole-4-sulfonamide]

Compound | IC50 (APC11/APC2) | IC50 ([1]; Homo sapiens, A549, ICAM assay) | IC50 ([1]; ICAM assay)
O=C(c1ccc(F)cc1)C1CCN(c2ccc([N+](=O)[O-])c3nonc23)CC1 [compound 142, (4-fluorophenyl)[1-(7-nitro-2,1,3-benzoxadiazol-4-yl)piperidin-4-yl]methanone] | 1 to 20 µM | – | –
